Source: article PMC9668914, “Understanding VPAC receptor family peptide binding and selectivity” (Nature Communications, 2022)
No end group written: not given here.

Target: T1, VPAC1R (Homo sapiens, UniProt P32241)
T1 construct: An HA signal peptide was inserted in place of the native signal peptide of the receptors; HA signal peptide (replaces the native signal peptide) (N); 3C protease cleavage sites (between FLAG and receptor, and between receptor and His) (internal); expressed in transfected cells; host or cells: COS-7 (transient, PEI)
T1 sequence (P32241 31-457): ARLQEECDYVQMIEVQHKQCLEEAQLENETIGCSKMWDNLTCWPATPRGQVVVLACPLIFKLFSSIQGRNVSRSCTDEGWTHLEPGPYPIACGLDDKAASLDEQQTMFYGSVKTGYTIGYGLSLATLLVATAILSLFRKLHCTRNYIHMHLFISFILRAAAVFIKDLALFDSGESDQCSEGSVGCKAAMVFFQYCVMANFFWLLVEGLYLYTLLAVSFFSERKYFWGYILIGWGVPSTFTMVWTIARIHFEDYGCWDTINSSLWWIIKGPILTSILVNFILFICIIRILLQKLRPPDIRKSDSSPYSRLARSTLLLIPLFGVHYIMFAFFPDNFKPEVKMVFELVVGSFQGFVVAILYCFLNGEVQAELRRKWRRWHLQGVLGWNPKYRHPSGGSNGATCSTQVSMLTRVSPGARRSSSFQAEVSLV
Assay: cAMP accumulation, chimeric peptides (Fig. 5a)
Format: cell-based
Conditions: pEC50, VPAC1R cAMP, COS-7, three-parameter logistic
Procedure: COS-7 cells were used for the chimeric peptide and cysteine mutagenesis pharmacological assays due to their lack of endogenous expression of PAC1R and receptor activity-modifying proteins, reported to potentially heterodimerize with PAC1R and VPAC1R[42]. […] COS-7 cells were plated in 10 cm dishes at approximately 1 million cells/dish. Cells were transfected 24 h later, with 5 µg of either WT or mutant PAC1R or VPAC1R receptor DNA. DNA and PEI (in a 1:6 ratio) were each diluted in 150 mM NaCl, and then combined and incubated for 10 min, before the mixture was added to the 10 cm dish. The next day, cells were harvested from the 10 cm dishes using Trypsin-Versene (PBS + 0.5 mM EDTA, pH 7.4), and were seeded at a density of 15,000 cells/well into clear 96-well culture plates and incubated overnight at 37 °C in 5% CO2 for cAMP accumulation assay the next day.
The reaction was terminated after 30 min by aspiration of the buffer and addition of 50 μl of ice-cold ethanol. Upon evaporation of ethanol, 75 μl of lysis buffer (5 mM HEPES, 0.1% (w/v) OVA, 0.3% (w/v) Tween20, pH 7.4) was added to the cells. cAMP detection was performed using a LANCE cAMP Detection Kit (PerkinElmer) for the construct validation and cysteine mutagenesis pharmacological assays and cAMP Gs HiRange kit (Cisbio) for the chimeric peptide pharmacological assays. The plates were read using an EnVision plate reader with excitation at 320 nm and emission at 615 nm[45].
The pharmacological data in figures and tables are reported as mean + standard error of the mean (SEM) with the number of biological replicates indicated in the figure and table legends where “n” represents the number of biological replicates performed. Concentration-response data were analyzed in GraphPad Prism version 9.4.0 using a three-parameter logistic curve to derive pEC50 values for the cyclic AMP accumulation. Competition binding data were analyzed in GraphPad Prism using the one site—Fit log IC50 model to derive pIC50 values. For the cysteine mutagenesis data, comparisons of multiple different groups were performed using one-way analysis of variance (ANOVA), followed by Dunnett’s post-hoc test with the control group being the WT receptor, with significance accepted at p < 0.05. For the chimeric peptide data, comparisons of multiple different groups were performed using one-way ANOVA, followed by Tukey’s post-hoc test, with significance accepted at p < 0.05.

Compound	EC50 (replicate n=1) [nM]	EC50 (replicate n=2) [nM]	EC50 (replicate n=3) [nM]	EC50 (replicate n=4) [nM]	EC50 (replicate n=5) [nM]
CC[C@H](C)[C@H](NC(=O)[C@H](C)NC(=O)[C@H](CC(=O)O)NC(=O)[C@H](CO)NC(=O)[C@@H](N)Cc1cnc[nH]1)C(=O)N[C@@H](Cc1ccccc1)C(=O)N[C@H](C(=O)N[C@@H](CC(=O)O)C(=O)N[C@@H](CO)C(=O)N[C@@H](Cc1ccc(O)cc1)C(=O)N[C@@H](CO)C(=O)N[C@@H](CCCNC(=N)N)C(=O)N[C@@H](Cc1ccc(O)cc1)C(=O)N[C@@H](CCCNC(=N)N)C(=O)N[C@@H](CCCCN)C(=O)N[C@@H](CCC(N)=O)C(=O)N[C@@H](CCSC)C(=O)N[C@@H](C)C(=O)N[C@H](C(=O)N[C@@H](CCCCN)C(=O)N[C@@H](CCCCN)C(=O)N[C@@H](Cc1ccc(O)cc1)C(=O)N[C@@H](CC(C)C)C(=O)N[C@@H](C)C(=O)N[C@@H](C)C(=O)N[C@H](C(=O)N[C@@H](CC(C)C)C(N)=O)C(C)C)C(C)C)[C@@H](C)O [Ala4 PACAP27]	2.25	2.52	9.38	1.73	12.4
HSDGVFTDNYTRLRKQMAVKKYLNSILN-NH2 [Gly4 VIP]	1.26	0.995	1.64	1.7	1.39
